Data taken from patent US20220096515A1, “Methods and Formulations for Preventing Neurological or Psychiatric Disorders” (Huntington Medical Research Institutes, priority 2020, published 2022).
Each block holds one compound with its values, some of them ahead of it.

Key:
P2Y13 receptor = target: T1, P2Y13 receptor (Mus musculus, UniProt Q9D8I2); assay: Calcium imaging, P2Y13 agonist; type: cell-based; conditions: 100 μM; periventricular endothelial cells
T1 construct: imaged continuously before and after αβ-meATP, Bz-ATP and 2Me-SADP application (100 μM); endogenous in cells; host or cells: Primary periventricular endothelial cells from mouse embryonic telencephalon
T1 sequence (Q9D8I2 1-337): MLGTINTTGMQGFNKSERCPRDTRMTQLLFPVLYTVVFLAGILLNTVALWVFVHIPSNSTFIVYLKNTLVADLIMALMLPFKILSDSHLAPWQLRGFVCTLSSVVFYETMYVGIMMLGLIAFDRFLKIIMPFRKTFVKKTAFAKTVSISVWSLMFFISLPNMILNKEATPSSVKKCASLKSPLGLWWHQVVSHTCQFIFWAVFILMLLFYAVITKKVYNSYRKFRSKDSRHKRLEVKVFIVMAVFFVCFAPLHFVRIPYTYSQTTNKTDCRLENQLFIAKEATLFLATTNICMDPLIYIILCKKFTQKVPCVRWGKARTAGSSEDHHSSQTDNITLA
Experimental: (§1) Calcium imaging: For Ca^2+ assays, periventricular endothelial cells (1 million cells per assay) were incubated with the Ca^2+ indicator dye FluoForte AM according to manufacturer's instructions (Enzo Life Sciences), loaded into the chamber of an FSX 100 microscope and imaged continuously before and after αβ-meATP, Bz-ATP and 2Me-SADP application (100 μM). Fluorescence micrographs were digitalized and results were expressed as change in fluorescence over baseline fluorescence.
(§2) An important aspect that influences endothelial cell proliferation is Ca^2+ influx, which is important for cell cycle progression in the neocortex. GABAA receptor activation in Gabrb3^fl/fl periventricular endothelial cells leads to an influx of Ca^2+ that influences cell proliferation. However, in Gabrb3^ECKO periventricular endothelial cells, due to the deletion of the β3 subunit, the GABAA receptors are dysfunctional. So, the autocrine feedback loop of GABA acting on GABAA receptors will not work in these Gabrb3^ECKO endothelial cells to cause Ca^2+ influx, even if GABA secretion is restored. […] Therefore, P2X4 expression at both mRNA and protein levels in periventricular endothelial cells were evaluated, prepared after the six-day saline and NAD^+ treatment paradigm (FIGS. 11J-11O). […]

P2X4 receptor [1] = target: T2, P2X4 receptor (Mus musculus, UniProt Q9JJX6); assay: P2X4 activation/inactivation in wild type endothelial cells: Daxx mRNA and GABA ELISA; type: cell-based; conditions: cultured wild type periventricular endothelial cells
T2 construct: endogenous in cells; host or cells: Primary periventricular endothelial cells from mouse embryonic telencephalon (CD1 wild type; Gabrb3 fl/fl; Gabrb3 ECKO with or without NAD+)
T2 sequence (Q9JJX6 1-388): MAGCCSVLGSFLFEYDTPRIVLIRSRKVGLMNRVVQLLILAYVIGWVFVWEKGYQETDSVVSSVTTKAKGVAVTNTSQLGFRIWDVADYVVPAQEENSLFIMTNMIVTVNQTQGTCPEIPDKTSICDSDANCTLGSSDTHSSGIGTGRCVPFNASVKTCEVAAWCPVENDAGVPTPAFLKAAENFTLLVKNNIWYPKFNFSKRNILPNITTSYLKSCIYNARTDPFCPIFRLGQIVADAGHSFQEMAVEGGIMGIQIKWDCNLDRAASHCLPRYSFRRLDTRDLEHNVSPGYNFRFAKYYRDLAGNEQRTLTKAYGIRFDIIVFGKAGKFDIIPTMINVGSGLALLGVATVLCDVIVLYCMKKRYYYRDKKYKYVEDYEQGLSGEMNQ
Experimental: Quantitative real-time PCR: RT was performed by using iScript Reverse Transcription Supermix kit (Bio-Rad). PCR reactions were run on a CFX96 Touch Real Time PCR (Bio-Rad) with SsoAdvanced™ Universal SYBR® Green Supermix (Bio-Rad). Primers for qPCR (Daxx, P2x4, P2x7, P2y13, Tek, vwf, F2r, Sirt2, Nos1, Nrp1, Pax6, Gad1, Gad2, Grin2a, Trpm2, Trpc4 and Trpv6) were obtained from Thermo Fisher Scientific. The housekeeping gene Gapdh was used as a reference. The relative gene expression and subsequent fold changes among different samples were determined according to published methodology.
ELISA: Periventricular endothelial cells were prepared after the NAD^+ treatment paradigm, or after the treatment with purinergic receptor agonists/antagonists, and seeded in 12 well culture plates at 0.1×10^6 cells/well. Supernatants from endothelial cell cultures were collected after 96 hours and stored at −80° C. for ELISA. GABA concentrations were quantitatively determined by competitive ELISA according to the manufacturers' protocol (GABA Research ELISA kits, Labor Diagnostica Nord, Germany), and absorbance was measured using a multiplate microplate fluorescence reader (Molecular Devices, CA) at 450 nm.
(§3) An important aspect that influences endothelial cell proliferation is Ca^2+ influx, which is important for cell cycle progression in the neocortex. GABAA receptor activation in Gabrb3^fl/fl periventricular endothelial cells leads to an influx of Ca^2+ that influences cell proliferation. However, in Gabrb3^ECKO periventricular endothelial cells, due to the deletion of the β3 subunit, the GABAA receptors are dysfunctional. So, the autocrine feedback loop of GABA acting on GABAA receptors will not work in these Gabrb3^ECKO endothelial cells to cause Ca^2+ influx, even if GABA secretion is restored. In the absence of this mechanism, it was questioned whether the prenatal NAD^+ treatment was able to activate alternate mechanisms to trigger Ca^2+ influx in Gabrb3^ECKO endothelial cells. […] Therefore, P2X4 expression at both mRNA and protein levels in periventricular endothelial cells were evaluated, prepared after the six-day saline and NAD^+ treatment paradigm (FIGS. 11J-11O). P2X4 has been reported as the most abundantly expressed P2X receptor subtype in vascular endothelial cells from several tissues and its deficiency affects normal endothelial cell responses, such as Ca^2+ influx. However, P2X4 expression and functional significance in embryonic forebrain endothelial cells is unknown. […] To test whether P2X4 receptor activation on endothelial cells leads to an influx of Ca^2+, periventricular endothelial cells were incubated from the three groups in the presence of αβ-meATP that has been reported to show agonist activity at P2X receptors, including P2X4 (FIGS. 11N-11Q). […]

P2X4 receptor [2] = target: T2, P2X4 receptor; assay: Calcium imaging, P2X receptor agonist; type: cell-based; conditions: 100 μM
Experimental: as §1, §3

[3] = tested on: periventricular endothelial cells isolated from E15 wildtype (CD1) forebrain; assay: Endothelial cell proliferation in culture (confluency, BrdU labeling index); type: cell-based, mouse; conditions: 30 μM and 100 μM
Experimental: Primary culture of endothelial cells and endothelial cell staining: Embryonic brains were dissected under a stereo-microscope, after the NAD^+ treatment paradigm and the telencephalon was removed. Pial membranes were peeled off. Telencephalon without pial membranes from the periventricular region was pooled. Purity of endothelial cell cultures was established with endothelial cell markers and determined to be one hundred percent. Isolation and culture of endothelial cells were performed according to published methodology. Periventricular endothelial cells were prepared from CD1 (wild type), saline-treated Gabrb3^fl/fl, saline-treated Gabrb3^ECKO, and NAD^+-treated Gabrb3^ECKO embryos. Endothelial cells were labeled with anti-biotinylated isolectinB4 (1:100, Sigma), anti-GABA (1:400, Sigma), anti-DAXX (1:100, Santa Cruz Biotechnology) and anti-P2X4 (1:100, Abclonal) followed by secondary detection with AlexaFluor conjugates (Invitrogen). DAPI (Invitrogen) was used to label nuclei. Images were taken on an FSX100 microscope (Olympus). 1 million cells were examined for each immunohistochemistry condition.
Endothelial cell proliferation and long-distance cell migration assay: To test for cell proliferation, CD1 periventricular endothelial cells (1 million cells per experiment) were incubated in the presence of the mitotic marker 5-bromo-2′-deoxyuridine (0.05% BrdU) with or without muscimol, for 1 hour to examine the impact on proliferation of these cells and processed for BrdU immunohistochemistry.
In one experiment, periventricular endothelial cells were isolated from E15 wildtype (CD1) forebrain and tested the effect of NAD^+ addition in vitro. Exogenous addition of 100 μM NAD^+ was able to initiate significant endothelial cell proliferation within 2 days of culture and a 35 mm culture dish was confluent within 4-6 days (FIGS. 2A-2D). This was an interesting observation, since untreated periventricular endothelial cells take approximately 12 days to reach confluency in 35mm dishes, in our well-established culture conditions. […] Vital elements of angiogenesis include effective endothelial cell proliferation, migration, sprouting, alignment, tube formation and branching. […] In some areas of the dish, the NAD^+-treated endothelial cells seemed to align and fold into tubular shapes (FIG. 2H), aspects that we have not seen in wild type or untreated periventricular endothelial cells in normal culture conditions.
Effects of NAD^+ addition to periventricular endothelial cells isolated from E15 wildtype (CD1) forebrain was more robust than GABA. (FIGS. 17A-17F) Phase contrast images of periventricular endothelial cells cultured from E15 CD1 forebrain at different time points in untreated conditions (FIGS. 17A-17B) or after plating with NAD^+ addition (100 μM; FIGS. 17C-17D) or GABA addition (5 μM; FIGS. 17E-17F). […] (FIG. 17G) All groups of periventricular endothelial cells were exposed to BrdU (1 mM BrdU per ml medium) for 1 hour followed by Isolectin B4/BrdU double labeling. Quantification of BrdU labeling indices; Data represents mean±SD (n=8, *P<0.05; Student's t-test).

P2X7 receptor = target: T3, P2X7 receptor (Mus musculus, UniProt Q9Z1M0); assay: Calcium imaging, P2X7 agonist; type: cell-based; conditions: 100 μM; periventricular endothelial cells
T3 construct: imaged continuously before and after αβ-meATP, Bz-ATP and 2Me-SADP application (100 μM); endogenous in cells; host or cells: Primary periventricular endothelial cells from mouse embryonic telencephalon
T3 sequence (Q9Z1M0 1-595): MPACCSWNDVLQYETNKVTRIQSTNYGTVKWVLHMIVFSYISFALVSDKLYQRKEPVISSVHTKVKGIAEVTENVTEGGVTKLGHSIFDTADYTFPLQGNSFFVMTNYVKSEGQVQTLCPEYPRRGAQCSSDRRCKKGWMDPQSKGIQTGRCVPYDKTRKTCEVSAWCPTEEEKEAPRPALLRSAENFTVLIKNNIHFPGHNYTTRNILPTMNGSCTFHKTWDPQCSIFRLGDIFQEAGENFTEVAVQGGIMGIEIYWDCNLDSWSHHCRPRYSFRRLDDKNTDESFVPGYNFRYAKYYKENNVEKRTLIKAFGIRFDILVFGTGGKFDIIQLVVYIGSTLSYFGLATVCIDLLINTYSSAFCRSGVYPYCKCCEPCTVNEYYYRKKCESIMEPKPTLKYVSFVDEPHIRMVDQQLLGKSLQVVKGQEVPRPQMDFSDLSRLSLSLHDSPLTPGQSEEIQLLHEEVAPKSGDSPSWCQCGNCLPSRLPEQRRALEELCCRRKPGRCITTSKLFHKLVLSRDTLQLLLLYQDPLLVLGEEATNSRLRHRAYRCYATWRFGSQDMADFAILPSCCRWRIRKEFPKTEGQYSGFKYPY
Experimental: as §1, §2

- influx of Ca^2+ (P2Y13 receptor): produced an influx of Ca^2+
Compound: CSc1nc(N)c2ncn([C@@H]3O[C@H](COP(=O)(O)OP(=O)(O)O)[C@@H](O)[C@H]3O)c2n1 [2Me-SADP]

Compound: O=C1CC(=O)N(c2cccc(-c3nc(=S)o[nH]3)c2)c2ccc3ccccc3c2N1 [+NP-1815-PX, NP-1815-PX]
- Daxx mRNA expression (P2X4 receptor [1]): increased Daxx expression
- GABA secretion by ELISA (P2X4 receptor [1]): reduced GABA secretion

- Daxx mRNA expression (P2X4 receptor [1]): reduced Daxx expression
- GABA secretion by ELISA (P2X4 receptor [1]): increased GABA secretion
Compound: Nc1ncnc2c1ncn2[C@@H]1O[C@H](COP(=O)(O)CP(=O)(O)OP(=O)(O)O)[C@@H](O)[C@H]1O [αβ-meATP]
- intracellular calcium (P2X4 receptor [2]; NAD^+-treated Gabrb3^ECKO endothelial cells): significant increase in intracellular calcium
- intracellular calcium (P2X4 receptor [2]; saline-treated Gabrb3^ECKO endothelial cells): no marked increase in intracellular calcium
- intracellular calcium (P2X4 receptor [2]; saline-treated Gabrb3^fl/fl endothelial cells): significant increase in intracellular calcium

Compound: NCCCC(=O)O [GABA, reference compound]
- endothelial cell proliferation [3]: no notable effect on cell proliferation

- influx of Ca^2+ (P2X7 receptor): produced an influx of Ca^2+
Compound: Bz-ATP
